The conditions of series [1]: amide bond, 14-membered ring.
For series [2], the target named is human recombinant TAK1-TAB1 Kinase (TAK1 (1-303) and TAB1 (437-end)) (Homo sapiens (Human), UniProt O43318). Put plainly: TAK1 biochemical ADP-Glo kinase assay. Particulars: MBP substrate. Put shortly:
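Inhibition of human recombinant TAK1-TAB1 kinase was measured with a Promega ADP-Glo luminescence assay in 384-well plates. Compounds in 5% DMSO were pre-incubated 10 min with 2 μl TAK1-TAB1 (7.5 ng/μl) in buffer of Tris pH 7.5, MgCl2, DTT and BSA. MBP substrate and ATP were then added for 1 hour at room temperature. ADP-Glo reagent and kinase detection substrate followed, luminescence was read on an Envision, and IC50 came from non-linear regression.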

Series [3] is described as follows: Solubility assay in phosphate buffer. The conditions noted are these: phosphate buffer 100 mM, pH 7.4, room temperature, 20-24 h, LC-UV.
Procedure: The aqueous solubility of selected example compounds was determined as follows; 6 μL of DMSO stock solution of the selected example was added to 594 μL phosphate buffer (100 mM, pH 7.4). The resulting mixture was equilibrated over night (20-24 h, Alligator Shaker, room temperature). The mixture was then filtered (Millex LH 0.45 μm) and the concentration/solubility was determined by LC-UV quantification.
For series [4] the following is noted: amide bond, 14-membered ring. The source holds these as a separate data set.
[5] abbreviates: 10 μM ATP, read-out: TAK1 Mean IC50 (nM) @ 10 μM ATP.
Where [6] appears, read: phosphate buffer, pH 7.4, aqueous buffer, kinetic from dmso stock, Solubility (μM).
[7] abbreviates: 1 mM ATP, read-out: TAK1 Mean IC50 (nM) @ 1 mM ATP.

Values after ≈ are worked out from the molar mass of the structure shown. Where two headings read alike, the source gives them in different places.

Sequence of human recombinant TAK1-TAB1 Kinase (TAK1 (1-303) and TAB1 (437-end)) (O43318 other isoform, or with tags, fused parts or gaps): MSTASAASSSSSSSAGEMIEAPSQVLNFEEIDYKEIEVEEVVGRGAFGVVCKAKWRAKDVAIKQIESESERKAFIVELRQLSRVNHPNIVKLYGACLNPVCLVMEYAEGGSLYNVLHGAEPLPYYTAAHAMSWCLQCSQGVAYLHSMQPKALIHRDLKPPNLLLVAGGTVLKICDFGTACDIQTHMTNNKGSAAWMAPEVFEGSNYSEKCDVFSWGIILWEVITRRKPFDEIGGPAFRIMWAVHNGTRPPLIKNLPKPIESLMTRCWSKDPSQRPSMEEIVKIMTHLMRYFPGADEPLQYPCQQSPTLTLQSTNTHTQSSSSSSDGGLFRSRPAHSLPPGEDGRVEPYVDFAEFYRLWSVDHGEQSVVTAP

The molecule `C#Cc1cccc2nc3n(c12)[C@@H](C)CCCCNC(=O)c1cccc(c1)C(=O)N3` showed a ring closure, isolated yield in series [1] (from C#Cc1cccc2nc(NC(=O)c3cccc(C(=O)O)c3)n([C@@H](C)CCCCN)c12, TCFH/NMI, MeCN/DMF, 0.82 mM, 0.0 °C, 4.0 h) of 73%.
Turning to `CC1CCCCNC(=O)c2cccc(c2)C(=O)Nc2nc3cccc(N4CCCC4=O)c3n21` (stereo not shown), the ring closure, isolated yield in series [1] (from CC(CCCCN)n1c(NC(=O)c2cccc(C(=O)O)c2)nc2cccc(N3CCCC3=O)c21, TCFH/NMI, DMF/MeCN, 4.2 mM, 25.0 °C, 2.5 h) was 7.7%.
In turn, `CCOC(=O)c1cnc(Cl)c2nc3n(c12)[C@@H](C)CCCCNC(=O)c1cccc(c1)C(=O)N3` came in with a ring closure, isolated yield in series [1] (from CCOC(=O)c1cnc(Cl)c2nc(NC(=O)c3cccc(C(=O)O)c3)n([C@@H](C)CCCCN)c12, TCFH/NMI, MeCN/DMF, 1.29 mM, 0.0 °C, 4.0 h) of 49%.
In series [1] (from COC(=O)c1cc(Br)cc2nc(NC(=O)c3cccc(C(=O)O)c3)n([C@@H](C)CCCCN)c12, TCFH/NMI, DMF/MeCN, 1.4 mM, 0.0 °C, 16.0 h), `COC(=O)c1cc(Br)cc2nc3n(c12)[C@@H](C)CCCCNC(=O)c1cccc(c1)C(=O)N3` registered a ring closure, isolated yield of 30%.
In turn, `C[C@H]1CCCCNC(=O)c2cccc(c2)C(=O)Nc2nc3ccnc(Cl)c3n21` yielded a ring closure, isolated yield in series [1] (from C[C@@H](CCCCN)n1c(NC(=O)c2cccc(C(=O)O)c2)nc2ccnc(Cl)c21, TCFH/NMI, DMF/MeCN, 0.6 mM, 25.0 °C, 3.0 h) of 20%.
Consider `Cc1nnc(-c2cccc3nc4n(c23)C(C)CCCCNC(=O)c2cccc(c2)C(=O)N4)o1` (stereo not shown), for which the ring closure, isolated yield in series [1] (from Cc1nnc(-c2cccc3nc(NC(=O)c4cccc(C(=O)O)c4)n(C(C)CCCCN)c23)o1, HATU/DIEA, THF, 0.5 mM, 25.0 °C, 16.0 h, 2 steps) was 13%.
As to `Cc1ccc2c(c1)nc1n2CCCCCNC(=O)c2cccc(c2)C(=O)N1` [Example 4, 1^5-methyl-1^1H-2,6-diaza-1(2,1)-benzo[d]imidazola-4(1,3)-benzenacycloundecaphane-3,5-dione], the IC50 in series [2] (setting [5]) amounted to 7 nM. In series [3] (setting [6]), the solubility came to 0.2 µM (≈ 0.0725 µg/mL). Also, in series [4] (from Cc1ccc2c(c1)nc(NC(=O)c1cccc(C(=O)O)c1)n2CCCCCN, HATU/TEA, MeCN, 50.0 °C, 16.0 h, 2 steps), the ring closure, yield after HPLC amounted to 39%.
Turning to `O=C1NCCOCCn2c(nc3ccccc32)NC(=O)c2cccc1c2` [Example 5, 1^1H-9-oxa-2,6-diaza-1(2,1)-benzo[d]imidazola-4(1,3)-benzenacycloundecaphane-3,5-dione], the results for the IC50 in series [2] (setting [5]) and in series [2] (setting [7]) were 11 nM and 247 nM, respectively. Besides, the “solubility” value in series [3] amounted to 15.2 µM (≈ 5.33 µg/mL). The same molecule displayed a ring closure, yield after HPLC in series [4] (from NCCOCCn1c(NC(=O)c2cccc(C(=O)O)c2)nc2ccccc21, HATU/TEA, MeCN, 14.0 mM, 50.0 °C, 16.0 h, 2 steps) of 16%.
With `CC1CCCCNC(=O)c2cccc(c2)C(=O)Nc2nc3ccccc3n21` (stereo not shown) [Example 6, 11-methyl-1^1H-2,6-diaza-1(2,1)-benzo[d]imidazola-4(1,3)-benzenacycloundecaphane-3,5-dione], the IC50 in series [2] (setting [5]) came to 5 nM. Besides, the solubility in series [3] (setting [6]) was found to be 2.5 µM (≈ 0.906 µg/mL). The same molecule registered a ring closure, yield after HPLC in series [4] (from CC(CCCCN)n1c(NC(=O)c2cccc(C(=O)O)c2)nc2ccccc21, HATU/TEA, MeCN, 4.3 mM, 50.0 °C, 16.0 h, 2 steps) of 39%.
On to `CN1CCN(Cc2cc(C(=O)N(C)C)c3c(c2)nc2n3CCCCCNC(=O)c3cccc(c3)C(=O)N2)CC1` [Example 27, (E)-N,N-dimethyl-1^5-((4-methylpiperazin-1-yl)methyl)-3,5-dioxo-1^2,1^3-dihydro-1^1H-2,6-diaza-1(2,1)-benzo[d]imidazola-4(1,3)-benzenacycloundecaphane-1^7-carboxamide], for which the half-inhibitory concentration (IC50) in series [2] (setting [5]) worked out at 8 nM. The molecule also gave a solubility in series [3] (setting [6]) of 61.3 µM (≈ 32.6 µg/mL). This molecule returned a ring closure, yield after HPLC in series [4] (from CN1CCN(Cc2cc(C(=O)N(C)C)c3c(c2)nc(NC(=O)c2cccc(C(=O)O)c2)n3CCCCCN)CC1, HATU/DIEA, THF, then DMF, 0.46 mM, 40.0 °C, 18.0 h) of 10%.
For `COc1ncccc1-c1cccc2nc3n(c12)CCCCCNC(=O)c1cccc(c1)C(=O)N3` [Example 28, (E)-1^7-(2-methoxypyridin-3-yl)-1^2,1^3-dihydro-1^1H-2,6-diaza-1(2,1)-benzo[d]imidazola-4(1,3)-benzenacycloundecaphane-3,5-dione], the IC50 in series [2] (setting [5]) amounted to 366 nM. Also, the solubility in series [3] (setting [6]) stood at 1.1 µM (≈ 0.501 µg/mL). The same molecule came in with a ring closure, yield after HPLC in series [4] (from COc1ncccc1-c1cccc2nc(NC(=O)c3cccc(C(=O)O)c3)n(CCCCCN)c12, HATU/DIEA, DMF, 0.49 mM, 16.0 h) of 19%.
As for `CC1CCCCNC(=O)c2cccc(c2)C(=O)Nc2nc3cccc(-c4ccc[n+]([O-])c4)c3n21` (stereo not shown) [Example 33, (E)-3-(11-methyl-3,5-dioxo-1^2,1^3-dihydro-1^1H-2,6-diaza-1(2,1)-benzo[d]imidazola-4(1,3)-benzenacycloundecaphane-1^7-yl)pyridine 1-oxide], the half-inhibitory concentration (IC50) in series [2] (setting [5]) was determined as 8 nM. The ring closure, yield after HPLC in series [4] (from CC(CCCCN)n1c(NC(=O)c2cccc(C(=O)O)c2)nc2cccc(-c3ccc[n+]([O-])c3)c21, HATU/DIEA, THF, 0.46 mM, 32.0 h, 2 steps) came out at 7%.
For the molecule `C[C@@H]1CCCCNC(=O)c2cccc(c2)C(=O)Nc2nc3cccc(S(=O)(=O)N(C)C)c3n21` [Example 46, (R,E)-N,N,11-trimethyl-3,5-dioxo-1^2,1^3-dihydro-1^1H-2,6-diaza-1(2,1)-benzo[d]imidazola-4(1,3)-benzenacycloundecaphane-1^7-sulfonamide], in series [2] (setting [5]), the IC50 came out at 2 nM. Further, in series [3] (setting [6]), the solubility was found to be 10 µM (≈ 4.7 µg/mL). The molecule further had a ring closure, yield after HPLC in series [4] (from C[C@H](CCCCN)n1c(NC(=O)c2cccc(C(=O)O)c2)nc2cccc(S(=O)(=O)N(C)C)c21, HATU/DIEA, THF, 0.5 mM, 50.0 °C, 16.0 h) of 24%.
`Cc1nnc(-c2cccc3nc4n(c23)[C@H](C)CCCCNC(=O)c2cccc(c2)C(=O)N4)n1C` [Example 57, (R,E)-1^7-(4,5-dimethyl-4H-1,2,4-triazol-3-yl)-11-methyl-1^2,1^3-dihydro-1^1H-2,6-diaza-1(2,1)-benzo[d]imidazola-4(1,3)-benzenacycloundecaphane-3,5-dione]: the concentration for half-maximal inhibition (IC50) in series [2] (setting [5]) was 3 nM; in series [2] (setting [7]) it was 6 nM. This molecule registered a solubility in series [3] (setting [6]) of 95 µM (≈ 43.5 µg/mL). This molecule also showed a ring closure, yield after HPLC in series [4] (from Cc1nnc(-c2cccc3nc(NC(=O)c4cccc(C(=O)O)c4)n([C@H](C)CCCCN)c23)n1C, HATU/DIEA, THF, 0.5 mM, 50.0 °C, 23.0 h) of 31%.
In series [1] (from C[C@H](CCCCN)n1c(NC(=O)c2cccc(C(=O)O)c2)nc2cccc(N3CCN(C)C3=O)c21, HATU/DIEA, THF, 0.5 mM, 25.0 °C, 96.0 h), `C[C@@H]1CCCCNC(=O)c2cccc(c2)C(=O)Nc2nc3cccc(N4CCN(C)C4=O)c3n21` [Example 65, (R,E)-11-methyl-1^7-(3-methyl-2-oxoimidazolidin-1-yl)-1^2,1^3-dihydro-1^1H-2,6-diaza-1(2,1)-benzo[d]imidazola-4(1,3)-benzenacycloundecaphane-3,5-dione] came in with a ring closure, isolated yield of 15%. The 50% inhibitory concentration (IC50) in series [2] (setting [5]) amounted to 4 nM. In series [3] (setting [6]), this molecule displayed a solubility of 95 µM (≈ 43.8 µg/mL).
Consider `C[C@@H]1CCCCNC(=O)c2cccc(c2)C(=O)Nc2nc3cccc(-c4cn(C)nn4)c3n21` [Example 66, (R,E)-11-methyl-1^7-(1-methyl-1H-1,2,3-triazol-4-yl)-1^2,1^3-dihydro-1^1H-2,6-diaza-1(2,1)-benzo[d]imidazola-4(1,3)-benzenacycloundecaphane-3,5-dione], for which the IC50 in series [2] (setting [5]) was 3 nM. This molecule also yielded a solubility in series [3] (setting [6]) of 5.2 µM (≈ 2.31 µg/mL). The ring closure, yield after HPLC in series [4] (from C[C@H](CCCCN)n1c(NC(=O)c2cccc(C(=O)O)c2)nc2cccc(-c3cn(C)nn3)c21, HATU/DIEA, THF, 0.48 mM, 25.0 °C, 78.0 h) came out at 5%.
Regarding `O=C1NCCCCCn2c(nc3cc(F)ccc32)NC(=O)c2cccc1c2` [Example 99, (E)-1^5-fluoro-1^2,1^3-dihydro-1^1H-2,6-diaza-1(2,1)-benzo[d]imidazola-4(1,3)-benzenacycloundecaphane-3,5-dione], in series [2] (setting [5]), the IC50 was found to be 4 nM. In series [3] (setting [6]), this molecule came in with a solubility of 0.2 µM (≈ 0.0733 µg/mL). In series [4] (from NCCCCCn1c(NC(=O)c2cccc(C(=O)O)c2)nc2cc(F)ccc21, HATU/DIEA, THF, 0.5 mM, 50.0 °C, 16.0 h), the ring closure, yield after HPLC was 16%.
For the molecule `CN1CCN(Cc2ccc3c(c2)nc2n3CCCCCNC(=O)c3cccc(n3)C(=O)N2)CC1` [Example 102, (E)-1^5-((4-methylpiperazin-1-yl)methyl)-1^2,1^3-dihydro-1^1H-2,6-diaza-1(2,1)-benzo[d]imidazola-4(2,6)-pyridinacycloundecaphane-3,5-dione], in series [2] (setting [5]), the half-inhibitory concentration (IC50) was determined as 9 nM. In series [3] (setting [6]), this molecule came in with a solubility of 88 µM (≈ 40.6 µg/mL). Moreover, the ring closure, yield after HPLC in series [4] (from CN1CCN(Cc2ccc3c(c2)nc(NC(=O)c2cccc(C(=O)O)n2)n3CCCCCN)CC1, T3P/DIEA, DMF, 50.0 mM, 25.0 °C, 1.5 h) worked out at 30%.
